# T1: ABCB19 (Arabidopsis thaliana, UniProt Q9LJX0)
# T1 sequence (Q9LJX0 1-1252): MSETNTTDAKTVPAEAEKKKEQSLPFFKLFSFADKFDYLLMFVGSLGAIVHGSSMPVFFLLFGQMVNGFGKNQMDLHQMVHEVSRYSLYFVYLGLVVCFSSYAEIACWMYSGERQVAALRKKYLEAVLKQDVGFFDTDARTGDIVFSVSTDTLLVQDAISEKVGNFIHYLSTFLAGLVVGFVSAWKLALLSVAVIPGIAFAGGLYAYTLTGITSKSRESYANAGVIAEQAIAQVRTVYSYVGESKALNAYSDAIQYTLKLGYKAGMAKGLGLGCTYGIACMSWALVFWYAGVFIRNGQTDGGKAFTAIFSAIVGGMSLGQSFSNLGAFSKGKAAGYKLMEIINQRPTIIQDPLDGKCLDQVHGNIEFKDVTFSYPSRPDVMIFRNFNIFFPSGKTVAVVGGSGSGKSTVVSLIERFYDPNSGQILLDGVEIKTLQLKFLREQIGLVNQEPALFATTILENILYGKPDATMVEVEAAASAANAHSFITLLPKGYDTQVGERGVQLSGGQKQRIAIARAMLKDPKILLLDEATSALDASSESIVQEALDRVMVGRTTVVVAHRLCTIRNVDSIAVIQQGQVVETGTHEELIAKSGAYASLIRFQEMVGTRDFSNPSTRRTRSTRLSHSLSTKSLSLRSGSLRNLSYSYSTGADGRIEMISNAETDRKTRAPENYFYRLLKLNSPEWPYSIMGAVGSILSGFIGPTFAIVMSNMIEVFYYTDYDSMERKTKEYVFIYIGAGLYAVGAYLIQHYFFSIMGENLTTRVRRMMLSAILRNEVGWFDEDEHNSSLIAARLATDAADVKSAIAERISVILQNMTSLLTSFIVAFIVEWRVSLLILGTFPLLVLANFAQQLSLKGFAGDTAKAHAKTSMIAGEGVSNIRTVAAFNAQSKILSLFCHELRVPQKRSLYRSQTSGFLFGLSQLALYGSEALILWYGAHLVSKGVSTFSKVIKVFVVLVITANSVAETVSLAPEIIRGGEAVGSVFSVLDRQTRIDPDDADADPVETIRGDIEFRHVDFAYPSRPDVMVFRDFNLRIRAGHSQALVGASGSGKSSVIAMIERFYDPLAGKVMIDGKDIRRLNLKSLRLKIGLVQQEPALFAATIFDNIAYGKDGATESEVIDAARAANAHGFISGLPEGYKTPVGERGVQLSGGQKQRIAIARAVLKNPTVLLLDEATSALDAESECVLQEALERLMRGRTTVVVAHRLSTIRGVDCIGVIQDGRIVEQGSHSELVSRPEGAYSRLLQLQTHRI
# B1: ABCB19 (Arabidopsis thaliana) (protein)
# chain: T1 sequence (Q9LJX0 1-1252)
# Experiments:
# [1] = target: T1, ABCB19; assay: cryo-EM structure at […] Å in nanodiscs; type: biochemical
# [2] = substrate: Nc1ncnc2c1ncn2[C@@H]1O[C@H](COP(=O)(O)OP(=O)(O)OP(=O)(O)O)[C@@H](O)[C@H]1O; assay: purified protein; type: biochemical, Arabidopsis thaliana; conditions: Mg2+ ATP-binding sites of the NBDs
Molecule,IC50 [1] [µM],Km [2] [µM]
"CCN(CC)c1ccc(C(=O)c2ccccc2C(=O)O)c(O)c1 [BUM, 2-[4-(Diethylamino)-2-hydroxybenzoyl]benzoic acid]",890,
B1,,1080

# Reference: article PMC12164952 (Science Advances, 2025)
